In US8841233B2, “Herbicidal compositions comprising 4-amino-3-chloro-5-fluoro-6-(4-chloro-2-fluoro-3-methoxyphenyl) pyridine-2-carboxylic acid or a derivative thereof and 4-hydroxyphenyl-pyruvate dioxygenase (HPPD) inhibitors” (Dow Agrosciences LLC, priority 2012, dated 2014):
“And” between values parts separate entries of the source, which are not always exact repeats. Equal entries are not always repeated.

Experiments:
CYPIR = experiment: Post-emergence foliar-applied weed control, greenhouse (Example I); format: in vivo, Cyperus iria L.
Source text: Evaluation of Post-emergence Foliar-Applied Herbicidal Mixtures for Weed Control in Direct Seeded Rice
Seeds or nutlets of the desired test plant species were planted in a soil matrix prepared by mixing a loam or sandy loam soil (e.g., 28.6 percent silt, 18.8 percent clay, and 52.6 percent sand, with a pH of about 5.8 and an organic matter content of about 1.8 percent) and calcareous grit in an 80 to 20 ratio. The soil matrix was contained in plastic pots with a volume of 1 quart and a surface area of 83.6 square centimeters (cm^2). When required to ensure good germination and healthy plants, a fungicide treatment and/or other chemical or physical treatment was applied. The plants were grown for 8-22 days in a greenhouse with an approximate 14 h photoperiod which was maintained at about 29° C. during the day and 26° C. during the night. Nutrients (Peters Excel® 15-5-15 5-Ca 2-Mg and iron chelate) were applied in the irrigation solution as needed and water was added on a regular basis. Supplemental lighting was provided with overhead metal halide 1000-Watt lamps as necessary. The plants were employed for testing when they reached the first through fourth true leaf stage.
(§1) Treatments consisted of the acid or esters of 4-amino-3-chloro-5-fluoro-6-(4-chloro-2-fluoro-3-methoxy-phenyl)pyridine-2-carboxylic acid (Compound A), each formulated as an SC (suspension concentrate), and various herbicidal components alone and in combination. Forms of Compound A were applied on an acid equivalent basis.
(§2) Other herbicidal components were applied on an active ingredient basis and included 4-hydroxyphenyl pyruvate dioxygenase (HPPD)-inhibiting herbicides mesotrione formulated as Callisto®, sulcotrione formulated as Mikado®, pyrazolynate formulated as Sunbird® 10% GR, and benzobicyclon formulated as Benzobicyclon 3.5%.
Treatment requirements were calculated based upon the rates being tested, the concentration of active ingredient or acid equivalent in the formulation, and a 12 mL application volume at a rate of 187 L/ha.
For treatments comprised of formulated compounds, measured amounts of compounds were placed individually in 25 mL glass vials and diluted in a volume of 1.25% (v/v) Agri-Dex® crop oil concentrated to obtain 12× stock solutions. […] Application solutions were prepared by adding an appropriate amount of each stock solution (e.g., 1 mL) and diluted to the appropriate final concentrations with the addition of 10 mL of an aqueous mixture of 1.25% (v/v) crop oil concentrate so that the final spray solutions contained 1.25+/−0.05% (v/v) crop oil concentrate.
For treatments comprised of formulated and technical compounds, weighed amounts of the technical materials were placed individually in 25 mL glass vials and dissolved in a volume of 97:3 v/v acetone/DMSO to obtain 12× stock solutions, and measured amounts of the formulated compounds were placed individually in 25 mL glass vials and diluted in a volume of 1.5% (v/v) crop oil concentrate or water to obtain 12× stock solutions. […] Application solutions were prepared by adding an appropriate amount of each stock solution (e.g., 1 mL) and diluted to the appropriate final concentrations with the addition of an appropriate amount of an aqueous mixture of 1.5% (v/v) crop oil concentrate so that the final spray solutions contained 1.25% (v/v) crop oil concentrate. As required, additional water and/or 97:3 v/v acetone/DMSO was added to individual application solutions so that the final acetone and DMSO concentrations of the application solutions being compared were 8.1% and 0.25%, respectively.
All stock solutions and applications solutions were visually inspected for compound compatibility prior to application. Spray solutions were applied to the plant material with an overhead Mandel track sprayer equipped with a 8002E nozzles calibrated to deliver 187 L/ha over an application area of 0.503 m^2 at a spray height of 18 to 20 inches (46 to 50 cm) above average plant canopy height. […]

CYPRO = experiment: In-water applied weed control, transplanted paddy rice, greenhouse (Example II); format: in vivo, Cyperus rotundus L.
Protocol: Evaluation of in-Water Applied Herbicidal Mixtures for Weed Control in Transplanted Paddy Rice
Weed seeds or nutlets of the desired test plant species were planted in puddled soil (mud) prepared by mixing a shredded, non-sterilized mineral soil (50.5 percent silt, 25.5 percent clay, and 24 percent sand, with a pH of about 7.6 and an organic matter content of about 2.9 percent) and water at a 1:1 volumetric ratio. The prepared mud was dispensed in 365 mL aliquots into 16-ounce (oz.) non-perforated plastic pots with a surface area of 86.59 square centimeters (cm^2) leaving a headspace of 3 centimeters (cm) in each pot. Mud was allowed to dry overnight prior to planting or transplanting. Rice seeds were planted in Sun Gro MetroMix® 306 planting mixture, which typically has a pH of 6.0 to 6.8 and an organic matter content of about 30 percent, in plastic plug trays. Seedlings at the second or third leaf stage of growth were transplanted into 840 mL of mud contained in 32-oz. non-perforated plastic pots with a surface area of 86.59 cm^2 4 days prior to herbicide application. The paddy was created by filling the headspace of the pots with 2.5 to 3 cm of water. When required to ensure good germination and healthy plants, a fungicide treatment and/or other chemical or physical treatment was applied. The plants were grown for 4-22 days in a greenhouse with an approximate 14 h photoperiod which was maintained at about 29′C during the day and 26° C. during the night. Nutrients were added as Osmocote® (19:6:12, N:P:K+ minor nutrients) at 2 g per 16-oz. pot and 4 g per 32-oz. pot. Water was added on a regular basis to maintain the paddy flood, and supplemental lighting was provided with overhead metal halide 1000-Watt lamps as necessary. The plants were employed for testing when they reached the first through fourth true leaf stage.
as §1, with “(compound A)” for “(Compound A),”, “concentrate)” for “concentrate),”, “compound” for “Compound”
as §2, with “3.5% or technical material.” for “3.5%.”
Treatment requirements for each compound or herbicidal component were calculated based upon the rates being tested, the concentration of active ingredient or acid equivalent in the formulation, an application volume of 2 mL per component per pot, and an application area of 86.59 cm^2 per pot.
For formulated compounds, a measured amount was placed in an individual 100 or 200 mL glass vial and was dissolved in a volume of 1.25% (v/v) Agri-Dex® crop oil concentrate to obtain application solutions.
For technical grade compounds, a weighed amount was placed in an individual 100 to 200 mL glass vial and was dissolved in a volume of acetone to obtain concentrated stock solutions. […] The concentrated stock solutions obtained were diluted with an equivalent volume of an aqueous mixture containing 2.5% (v/v) crop oil concentrate so that the final application solutions contained 1.25% (v/v) crop oil concentrate.
Applications were made by injecting with a pipetter appropriate amounts of the application solutions, individually and sequentially, into the aqueous layer of the paddy. Control plants were treated in the same manner with the solvent blank. Applications were made so that all treated plant material received the same concentrations of acetone and crop oil concentrate.
The treated plants and control plants were placed in a greenhouse as described above and water was added as needed to maintain a paddy flood. […]

COc1c(Cl)ccc(-c2nc(C(=O)O)c(Cl)c(N)c2F)c1F [Compound A Acid, 4-amino-3-chloro-6-(4-chloro-2-fluoro-3-methoxyphenyl)-5-fluoropyridine-2-carboxylic acid]
Visual Weed Control (%) - 20 DAA CYPIR Obs (CYPIR; 4.38 gae/ha): 75% | Visual Weed Control (%) - 20 DAA CYPIR Obs (CYPIR; 8.75 gae/ha): 90% | Visual Weed Control (%) - 20 DAA CYPIR Obs (CYPIR; 17.5 gae/ha): 90% | Visual Weed Control (%) - 22 DAA CYPRO Obs (CYPRO; 10.6 gae/ha): 0% | Visual Weed Control (%) - 22 DAA CYPRO Obs (CYPRO; 21.2 gae/ha): 40% and 60% | Visual Weed Control (%) - 22 DAA CYPRO Obs (CYPRO; 42.4 gae/ha): 90%

COc1c(Cl)ccc(-c2nc(C(=O)OCc3ccccc3)c(Cl)c(N)c2F)c1F [Compound A Benzyl Ester, benzyl ester of 4-amino-3-chloro-5-fluoro-6-(4-chloro-2-fluoro-3-methoxy-phenyl)pyridine-2-carboxylic acid]
Visual Weed Control (%) - 22 DAA CYPIR Obs (CYPIR; 4.38 gae/ha): 10% | Visual Weed Control (%) - 22 DAA CYPIR Obs (CYPIR; 8.75 gae/ha): 65% | Visual Weed Control (%) - 21 DAA CYPRO Obs (CYPRO; 17.5 gae/ha): 10%
